From patent US20150203474A1, “SOLID FORMS COMPRISING INHIBITORS OF HCV NS5A, COMPOSITIONS THEREOF, AND USES THEREWITH” (PRESIDIO PHARMACEUTICALS ,INC., priority 2012, published 2015)
Like-named read-outs stand apart in the source and are kept apart here.

What was measured:
[1] = Stressing of Form A at ~40° C./~75% RH; assay type: physicochemical
Procedure: Form A samples were stressed at ˜40° C./˜75% relative humidity (RH) for 25-27 days. The samples were added to glass vials and then placed uncapped in jars containing saturated salt solutions. The jars were sealed and placed in an oven. […] XRPD patterns for this sample were collected with a PANalytical X'Pert PRO MPD diffractometer using an incident beam of Cu Kα radiation produced using a long, fine-focus source and a nickel filter. The diffractometer was configured using the symmetric Bragg-Brentano. Prior to the analysis, a silicon specimen (NIST SRM 640d) was analyzed to verify the Si 111 peak position. A specimen of the sample was packing into a nickel-coated copper well. Antiscatter slits (SS) were used to minimize the background generated by air. Soller slits for the incident and diffracted beams were used to minimize broadening from axial divergence. Diffraction patterns were collected using a scanning position-sensitive detector (X'Celerator) located 240 mm from the sample and Data Collector software v. 2.2b. […] TG′analysis was performed using a TA Instruments Q5000 IR and 2950 thermogravimetric analyzers. Temperature calibration was performed using nickel and Alumel™. Each sample was placed in an aluminum pan. Samples ran on TA Instruments 2950 were left uncapped and samples ran on Q5000 was hermetically sealed, the lid pierced, then inserted into the TG furnace. The furnace was heated under nitrogen. The sample was heated from 0° C. to 350° C., at 10° C./min.

[2] = PK study of Form A of Compound I in dogs; assay type: in vivo; details: PO dose of 75 mg/kg
Procedure: The pharmacokinetics (PK) properties of Form A of Compound I and Form I of Compound II were determined in a series of comprehensive experiments in preclinical species including Sprague-Dawley rats, beagle dogs, cynomolgus monkeys. In those studies, the Form A crystalline salt of Compound I (and Form I crystalline salt of Compound II) was formulated in saline, 0.5% MC in saline or other commonly used suitable formulation vehicles to give a clear solution or as a suspension or a paste depending on the concentration intended to reach and the choice of vehicles. Dosing was by oral gavage. Blood samples were drawn and placed into individual tube containing K2EDTA. Blood samples were put on ice and centrifuged (2000 g for 5 minutes at 4° C.) to obtain plasma within 15 minutes after collection. Plasma samples were stored at approximately −80° C. freezer until analysis. For most of these analyses, Compound I (and Compound II) and the internal standard (IS) were extracted from rat, monkey or dog plasma by protein precipitation, and the extract was evaporated, reconstituted and analyzed using HPLC with tandem mass spectrometric detection (HPLC-MS/MS), see examples for further details. Calibration was accomplished by weighted linear regression of the ratio of the peak area of analyte to that of the added internal standard (IS). For the validated assay in rat and monkey EDTA plasma, the Lower Limit of Quantitation (LLOQ) for both compound 1 and 2 was 5.00 ng/mL, and the assay was linear from 5.00-1,000 ng/mL. PK parameters were calculated by non-compartmental analysis using WinNonlin (versions 4.1 through 6.1). Non-naïve Beagle Dog, 8.0-9.5 kg were used in the study. The dosing solution was prepared by dissolving 1.90 g of Form A of Compound I (1.67 g free base equivalent) in 222.237 mL of 0.5% MC and vortexed for 20 min, sonicated for 2 min to obtain a colorless clear solution. The animals were restrained manually, and approx. 0.6-1 mL blood/time point was collected from cephalic or saphenous veins into pre-cooled EDTA tubes. Blood samples were put on ice and centrifuged at 4° C. to obtain plasma within 30 minutes of sample collection. […] 5 μL of the supernatant was injected for LC-MS/MS analysis. • For dilution samples: • An aliquot of 10 μL plasma sample was added with 90 μL blank Beagle dog plasma. The dilution factor was 10. An aliquot of 30 μL dilution plasma was added with 200 μL IS in ACN (testosterone as IS, 100.0 ng/mL), the mixture was vortexed for 2 min and centrifuged at 12000 rpm for 5 min. 5 μL of the supernatant was injected for LC-MS/MS analysis.

[3] = beagle, dog, plasma, po, 75 mg/kg, Dog #1, read-out: plasma concentration
[4] = beagle, dog, plasma, po, 75 mg/kg, Dog #2, read-out: plasma concentration
[5] = beagle, dog, plasma, po, 75 mg/kg, Mean, read-out: mean plasma concentration

Q: For `COC(=O)N[C@H](C(=O)N1CCC[C@H]1c1ncc(-c2ccc3cc(-c4ccc5nc([C@@H]6CCCN6C(=O)[C@@H](NC(=O)OC)C(C)C)[nH]c5c4)ccc3c2)[nH]1)C(C)C` [Form A of Compound I], which “Hygroscopicity (in words)” value ([1]; stressed ~40° C./~75% RH 27 days vs unstressed material) is on record?
A: hygroscopic at high RH

Q: What about the “Thermogravimetric weight loss after stressing” value ([1]; ~40° C./~75% RH, after 27 days, from 25-225° C., equivalent to 5 moles of water) of the same compound?
A: ~10%

Q: And the “Solid form by XRPD after stressing” value ([1]; ~40° C./~75% relative humidity, uncapped, after 25 days)?
A: remained Form A

Q: And the plasma concentration ([2]; Beagle Dog, 0.083 hr, Dog #1)?
A: BQL

Q: What about the concentration at 0.083 hr ([2]; beagle, dog, plasma, po, 75 mg/kg, 0.083 hr, Dog #2, read-out: plasma concentration) of the same compound?
A: 5.92 ng/mL

Q: And the concentration at 0.083 hr ([2]; beagle, dog, plasma, po, 75 mg/kg, 0.083 hr, Mean, read-out: mean plasma concentration)?
A: 5.92 ng/mL

Q: And the concentration at 0.25 h [2, 3]?
A: 267 ng/mL

Q: And the concentration at 0.25 h [2, 4]?
A: 374 ng/mL

Q: What about the concentration at 0.25 h [2, 5] of the same compound?
A: 320 ng/mL

Q: What about the concentration at 0.5 h ([2]; beagle, dog, plasma, po, 75 mg/kg, 0.5 hr, Dog #1) of the same compound?
A: 1090 ng/mL

Q: What about the concentration at 0.5 hr ([2]; beagle, dog, plasma, po, 75 mg/kg, 0.5 hr, Dog #2, read-out: plasma concentration) of the same compound?
A: 952 ng/mL

Q: What about the concentration at 0.5 hr ([2]; beagle, dog, plasma, po, 75 mg/kg, 0.5 hr, Mean, read-out: mean plasma concentration) of the same compound?
A: 1020 ng/mL

Q: And the concentration at 1 hr [2, 3]?
A: 1590 ng/mL

Q: What about the concentration at 1 hr [2, 4] of the same compound?
A: 2050 ng/mL

Q: What about the concentration at 1 hr [2, 5] of the same compound?
A: 1820 ng/mL

Q: What about the concentration at 2 hr [2, 3] of the same compound?
A: 2980 ng/mL

Q: And the concentration at 2 hr [2, 4]?
A: 2400 ng/mL

Q: What about the concentration at 2 hr [2, 5] of the same compound?
A: 2690 ng/mL

Q: What about the concentration at 4 hr [2, 3] of the same compound?
A: 3080 ng/mL

Q: What about the concentration at 4 hr [2, 4] of the same compound?
A: 1540 ng/mL

Q: What about the concentration at 4 hr [2, 5] of the same compound?
A: 2310 ng/mL

Q: What about the concentration at 6 hr [2, 3] of the same compound?
A: 3590 ng/mL

Q: And the concentration at 6 hr [2, 4]?
A: 1320 ng/mL

Q: What about the concentration at 6 hr [2, 5] of the same compound?
A: 2450 ng/mL

Q: What about the concentration at 8 hr [2, 3] of the same compound?
A: 3500 ng/mL

Q: And the concentration at 8 hr [2, 4]?
A: 1040 ng/mL

Q: And the concentration at 8 hr [2, 5]?
A: 2270 ng/mL

Q: What about the concentration at 24 hr [2, 3] of the same compound?
A: 244 ng/mL

Q: What about the concentration at 24 hr [2, 4] of the same compound?
A: 2160 ng/mL

Q: And the concentration at 24 hr [2, 5]?
A: 1200 ng/mL
